Experimental data as given in patent publication US20240423942A1, “PHARMACEUTICAL COMPOSITION INCLUDING RETINOIC ACID AND CARBOHYDRATE AND USE THEREOF” (Mastery Biotech CO., LTD., priority 2022, published 2024).

Tests used:
SARS-COV-2 PLpro = SARS-COV-2 PLpro (Severe acute respiratory syndrome coronavirus 2, UniProt P0DTD1); type: biochemical; details: Example 1; 50 μM; FIG. 2 and Table 2
Protocol: The enzymatic activity of SARS-COV-2 PLpro obtained above was measured by a colorimetry-based peptide cleavage assay, using the 6-mer peptide substrate, FRLKGG-para-nitroanilide (FG6-pNA) (purity 97% by HPLC; GL Biochem Ltd., Shanghai, China). In the cleavage assay, the 6-mer peptide substrate was cleaved at the Gly-pNA bond to release free pNA, which turned the color of the solution to yellow. The enzymatic activity was determined by continuously monitoring the absorbance at 405 nm (A405) using a 96-well microplate spectrophotometer (Epoch™ 2, Biotek) at 30° C.
An enzyme inhibition assay was performed in a 96-well microplate. Each of the wells of the microplate contained a 50 mM phosphate buffer (pH 7.4). SARS-COV-2 PLPro obtained above (0.9 μM) was added into the respective well to form an enzyme solution. […]
20 μL of FG6-pNA (1.2 mM) described above was added into the test mixture of the respective group to initiate the enzyme reaction. […] The enzymatic activity was determined by continuously monitoring the absorbance at 405 nm (A405) using a 96-well microplate spectrophotometer (Epoch™ 2, Biotek). The reaction rate was calculated accordingly, wherein the reaction rate is the slope of the absorbance A405 versus time (seconds) for a total reaction time of 300 seconds.
The inhibition percentage was calculated using the following equation: […]

SKOV-3 cancer cell line = test: In vitro cytotoxicity, Alamar blue cell viability, SK-OV-3; type: cell-based; details: 24 hr
AsPC-1 cancer cell line = test: In vitro cytotoxicity, Alamar blue cell viability, AsPC-1; type: cell-based; details: 24 hr
H460 cancer cell line = test: In vitro cytotoxicity, Alamar blue cell viability, NCI-H460; type: cell-based; details: 24 hr
[1] = system: MDA-MB-231 cancer cell line; test: In vitro cytotoxicity, Alamar blue cell viability, MDA-MB-231; type: cell-based; details: 24 hr
A549 cancer cell line = test: In vitro cytotoxicity, Alamar blue cell viability, A549; type: cell-based; details: 24 hr
Huh-7 cancer cell line = test: In vitro cytotoxicity, Alamar blue cell viability, Huh-7; type: cell-based; details: 24 hr
HCT-116 cancer cell line = test: In vitro cytotoxicity, Alamar blue cell viability, HCT-116; type: cell-based; details: 24 hr
SARS-COV-2 = details: Example 2; intranasal 0.35 mg/kg twice daily, 3-day treatment; FIG. 3
Description: Golden Syrian hamsters (aged 5-6 weeks old and having an average weight of about 100 g) were obtained from the National Laboratory Animal Center (Taipei, Taiwan). The hamsters were housed in an animal room under specific-pathogen-free (SPF) conditions commonly applied in the art. Furthermore, water and feed were provided ad libitum for all the hamsters. All the experiments involving the hamsters were consigned to and reviewed and approved by the Institutional Animal Care and Use Committee (IACUC) of Academia Sinica (Taiwan).
The hamsters were infected with SARS-COV-2 (obtained from P3 Lab, the Genomics Research Center, Academia Sinica; WuHan wild type) in phosphate buffered saline (PBS) through intranasal inoculation at 1×10^4 plaque-forming units (PFU) on 12:00 PM so as to establish a SARS-CoV-2 animal model. […]
After the 3-day treatment, the hamsters were sacrificed, and the lungs thereof were collected for live viral load measurement by TCID50 assay in Vero E6 cells. The virus titer was determined in terms of the 50% tissue culture infectious dose (TCID50) using the Reed-Muench method. […]

CC1=C(/C=C/C(C)=C/C=C/C(C)=C\C(=O)NCCCO[C@@H]2O[C@H](CO)[C@H](O)[C@H](O)[C@H]2O)C(C)(C)CCC1 [Galactose-modified isotretinoin, (2Z,4E,6E,8E)-3,7-Dimethyl-N-(3-(((2R,3R,4S,5R,6R)-3,4,5-Trihydroxy-6-(Hydroxymethyl)Tetrahydro-2H-Pyran-2-Yl)Oxy) Propyl)-9-(2,6,6-Trimethylcyclohex-1-En-1-Yl) Nona-2,4,6,8-Tetraenamide]
inhibition rate compared with Comparative_1 (isotretinoin only) (SARS-COV-2 PLpro): significantly higher | IC50 (SKOV-3 cancer cell line; Homo sapiens, SK-OV-3, Ovarian Cancer): 13.8 µM | cell viability (SKOV-3 cancer cell line; SKOV-3, FIG. 8): significantly reduce | cell viability (AsPC-1 cancer cell line; AsPC-1, FIG. 4): significantly reduce | IC50 (AsPC-1 cancer cell line; Homo sapiens, ASPC1, AsPC-1, Pancreatic Cancer): 23 µM | cell viability (H460 cancer cell line; H460, FIG. 10): significantly reduce | IC50 (H460 cancer cell line; Homo sapiens, NCI-H460, Non-small Cell Lung Cancer): 22.9 µM | IC50 ([1]; Homo sapiens, MDA-MB-231, Breast Cancer): 116 µM | cell viability ([1]; MDA-MB-231, FIG. 5): significantly reduce | cell viability (A549 cancer cell line; A549, FIG. 9): significantly reduce | IC50 (A549 cancer cell line; Homo sapiens, A549, Non-small Cell Lung Cancer): 21.9 µM | IC50 (Huh-7 cancer cell line; Homo sapiens, Huh-7, Liver Cancer): 77.5 µM | cell viability (Huh-7 cancer cell line; Huh-7, FIG. 7): significantly reduce | cell viability (HCT-116 cancer cell line; HCT-116, FIG. 6): significantly reduce | IC50 (HCT-116 cancer cell line; Homo sapiens, HCT-116, Colon Cancer): 123 µM | TCID50 (lung virus titer) compared with isotretinoin and liposome-encapsulated isotretinoin (SARS-COV-2): significantly lower
